In paper PMC9561414 (2022) one finds binding and K1/2 data, which are given here for four compounds.

Common to all, as to experiment: RelE cleavage translation initiation assay (PAGE)
Experiment [1] relates to Vvu add U61C (RNA, riboswitch) GCUUCAUAUAAUCCUAAUGAUAUGGUUUGGGAGUUUCUACCAAGAGCCUUAAACUCUUGACUAUGAAGUCUGUCGCUUUAUCCGAAAUUUUAUAAAGAGAAGACUCAUGUAGAAUUACUUUGACCUGCCG
Particulars: 30 mM K+ (KCl), 7 mM Mg2+, 70 mM NH4Cl, 50 mM HEPES-KOH pH 7.5, 37 °C, 70S ribosomes, IFs.

The test system of experiment [2] is Vvu add (WT) (RNA, riboswitch) GCUUCAUAUAAUCCUAAUGAUAUGGUUUGGGAGUUUCUACCAAGAGCCUUAAACUCUUGAUUAUGAAGUCUGUCGCUUUAUCCGAAAUUUUAUAAAGAGAAGACUCAUGUAGAAUUACUUUGACCUGCCG
Particulars: 30 mM K+ (KCl), 7 mM Mg2+, 70 mM NH4Cl; 50 mM HEPES-KOH pH 7.5, 37 °C, 70S ribosomes, IFs; apparent.

For experiment [3], the system named is Pae Gdm OFF (RNA, riboswitch) GGUUUCAGCCGGAAGCGGGAAAACCCGUUUUCCCUCUUUCAUUGCGCGGGGACGACCCUGCAGAGAGGCUGAAAAUGUAGUGGAUCUAUCUCUUGCUCGUA
The settings on record: 30 mM K+ (KCl), 7 mM Mg2+, 70 mM NH4Cl; 50 mM HEPES-KOH pH 7.5, 37 °C, 70S ribosomes, IFs; no response up to 25 mM guanidine.

Experiment [4] concerns Pae Gdm WT (RNA, riboswitch) GGUUUCAGCCGGAAGCGGGACGACCCGUUUUCCCUCUUUCAUUGCGCGGGGACGACCCUGCAGAGAGGCUGAAAAUGUAGUGGAUCUAUCUCUUGCUCGUA
The settings on record: 30 mM K+ (KCl), 7 mM Mg2+, 70 mM NH4Cl, 50 mM HEPES-KOH pH 7.5, 37 °C, 70S ribosomes, IFs.

For `Nc1ncnc2[nH]cnc12`, the binding entry in experiment [1] (no response up to 500 μM adenine) is “no”. The K1/2 in experiment [2] worked out at 1.4 ± 0.7 µM.
For the compound `N=C(N)N`, the binding result in experiment [3] is listed as “no”. In experiment [4] (apparent, Hill 1.5 ± 0.2), the K1/2 was determined as 2.2 ± 0.2 mM.
`Nc1nc2[nH]cnc2c(=O)[nH]1`: the K1/2 in experiment [1] (apparent) was 87 ± 3 nM.
In the case of `NC(N)=O`, the binding result in experiment [4] (no modulation at 50 mM urea) is “no”.
